Source: patent publication US12398107B2, “Fungicidal nitroanilino substituted pyrazoles” (FMC Corporation, priority 2018, dated 2025)

Tests used:
Format in all cases: in vivo
[1] = tested on: Septoria tritici; assay: Test A: wheat leaf blotch, preventive spray on wheat seedlings; conditions: 100 = 100% disease control, 0 = no control relative to controls
How it was run: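 Preventive test: seedlings sprayed to run-off one day before Septoria tritici spore inoculation, with ppm doses in acetone/water containing 250 ppm PEG400. After 48 h at 24 °C in saturated air and 17 days at 20 °C, plants were scored 0–100 for disease control versus untreated controls.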

[2] = tested on: Puccinia recondita f. sp. tritici; assay: Test B: wheat leaf rust, preventive spray on wheat seedlings; conditions: 100 = 100% disease control, 0 = no control relative to controls
How it was run: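 Wheat seedlings got a run-off spray (ppm, acetone/water 50/50, 250 ppm PEG400) and one day later a spore inoculum. After 24 h at 20° C. in saturated air and 7 days at 20° C., disease was scored as % control relative to controls (100 = full control).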

[3] = tested on: Blumeria graminis f. sp. tritici; assay: Test C: wheat powdery mildew, preventive spray on wheat seedlings; conditions: rated after 8 days, 100 = 100% disease control, 0 = no control
How it was run: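 Wheat seedlings got a run-off spray of test suspension (ppm in acetone/water 50/50, 250 ppm PEG400, acetone 3% of volume), then spore-dust inoculation with wheat powdery mildew one day later. After 8 days' growth-chamber incubation at 20° C, disease control scored visually on a 0–100 scale versus untreated controls.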

[4] = tested on: Phakopsora pachyrhizi; assay: Test D: Asian soybean rust, preventive spray on soybean seedlings; conditions: 100 = 100% disease control, 0 = no control
How it was run: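 Soybean seedlings sprayed to run-off with compound suspension (ppm, in 50/50 acetone/water with 250 ppm PEG400), inoculated next day with P. pachyrhizi spores, held 24 h saturated at 22°C then 8 days at 22°C. Visual rating 0-100% disease control relative to controls.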

[5] = tested on: Botrytis cinerea; assay: Test E: tomato Botrytis, preventive spray on tomato seedlings; conditions: 100 = 100% disease control, 0 = no control
How it was run: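 Preventive test: spore inoculation one day after run-off spraying of compound suspension (3% acetone, acetone/water 50/50, 250 ppm PEG400). Incubation 20 °C saturated humidity for 48 h, followed by 3 days at 24 °C growth chamber; disease control scored visually, 100 = full control.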

[6] = tested on: Alternaria solani; assay: Test F: tomato early blight, preventive spray on tomato seedlings; conditions: 100 = 100% disease control, 0 = no control
How it was run: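 Preventive test: one day after seedlings were sprayed to run-off with ppm-level suspensions (acetone/water 50/50, 250 ppm PEG400), A. solani spore inoculation followed. Incubation was 48 h at 27° C in saturated air plus 3 days at 20° C; disease control was scored visually versus controls (100 = full control).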

Structure (SMILES): Cc1nn(C)c(Nc2ccc(F)cc2[N+](=O)[O-])c1-c1c(F)cccc1Cl [Compound 44]
- Test A disease control rating (wheat leaf blotch) ([1]; 50 ppm): 100%
- Test B disease control rating (wheat leaf rust) ([2]; 50 ppm): 99%
- Test C disease control rating (wheat powdery mildew) ([3]; 50 ppm): 98%
- Test D disease control rating (Asian soybean rust) ([4]; 50 ppm): 0%
- Test E disease control rating (tomato Botrytis) ([5]; 50 ppm): 95%
- Test F disease control rating (tomato early blight) ([6]; 50 ppm): 46%

Structure (SMILES): Cc1nn(C)c(Nc2c(F)cc(Cl)cc2[N+](=O)[O-])c1-c1ccc(F)cc1Br [Compound 131]
- Test A disease control rating (wheat leaf blotch) ([1]; 50 ppm): 100%
- Test B disease control rating (wheat leaf rust) ([2]; 50 ppm): 100%
- Test C disease control rating (wheat powdery mildew) ([3]; 50 ppm): 99%
- Test D disease control rating (Asian soybean rust) ([4]; 50 ppm): 80%
- Test E disease control rating (tomato Botrytis) ([5]; 50 ppm): 99%
- Test F disease control rating (tomato early blight) ([6]; 50 ppm): 100%

Structure (SMILES): COc1cc(Cl)c(Nc2c(-c3ccc(F)cc3F)c(C)nn2C)c([N+](=O)[O-])c1 [Compound 141]
- Test A disease control rating (wheat leaf blotch) ([1]; 50 ppm): 99%
- Test B disease control rating (wheat leaf rust) ([2]; 50 ppm): 100%
- Test C disease control rating (wheat powdery mildew) ([3]; 50 ppm): 99%
- Test D disease control rating (Asian soybean rust) ([4]; 50 ppm): 0%
- Test E disease control rating (tomato Botrytis) ([5]; 50 ppm): 99%
- Test F disease control rating (tomato early blight) ([6]; 50 ppm): 83%

Structure (SMILES): Cc1nn(C)c(Nc2c(Cl)cccc2[N+](=O)[O-])c1-c1c(F)cc(F)cc1F [Compound 158]
- Test A disease control rating (wheat leaf blotch) ([1]; 50 ppm): 99%
- Test B disease control rating (wheat leaf rust) ([2]; 50 ppm): 100%
- Test C disease control rating (wheat powdery mildew) ([3]; 50 ppm): 99%
- Test D disease control rating (Asian soybean rust) ([4]; 50 ppm): 87%
- Test E disease control rating (tomato Botrytis) ([5]; 50 ppm): 99%
- Test F disease control rating (tomato early blight) ([6]; 50 ppm): 83%

Structure (SMILES): Cc1nn(C)c(Nc2ccccc2[N+](=O)[O-])c1-c1c(F)cc(Cl)cc1F [Compound 168]
- Test A disease control rating (wheat leaf blotch) ([1]; 50 ppm): 100%
- Test B disease control rating (wheat leaf rust) ([2]; 50 ppm): 74%
- Test C disease control rating (wheat powdery mildew) ([3]; 50 ppm): 97%
- Test D disease control rating (Asian soybean rust) ([4]; 50 ppm): 0%
- Test E disease control rating (tomato Botrytis) ([5]; 50 ppm): 99%
- Test F disease control rating (tomato early blight) ([6]; 50 ppm): 40%

Structure (SMILES): Cc1cc(F)c(Nc2c(-c3ccc(F)cc3Cl)c(C)nn2C)c([N+](=O)[O-])c1 [Compound 93, 4-(2-chloro-4-fluorophenyl)-N-(2-fluoro-4-methyl-6-nitrophenyl)-1,3-dimethyl-1H-pyrazol-5-amine]
- pest or weed control at 10 ppm ([1]; Zymoseptoria tritici, 10 ppm, read-out: Test A disease control rating (wheat leaf blotch)): 99%
- pest or weed control at 50 ppm ([1]; Zymoseptoria tritici, 50 ppm, read-out: Test A disease control rating (wheat leaf blotch)): 100%
- pest or weed control at 10 ppm ([2]; 10 ppm, read-out: Test B disease control rating (wheat leaf rust)): 100%
- pest or weed control at 50 ppm ([2]; 50 ppm, read-out: Test B disease control rating (wheat leaf rust)): 100%
- pest or weed control at 10 ppm ([3]; Blumeria graminis, 192 h, 10 ppm, read-out: Test C disease control rating (wheat powdery mildew)): 97%
- pest or weed control at 50 ppm ([3]; Blumeria graminis, 192 h, 50 ppm, read-out: Test C disease control rating (wheat powdery mildew)): 99%
- pest or weed control at 10 ppm ([4]; Phakopsora pachyrhizi, 10 ppm, read-out: Test D disease control rating (Asian soybean rust)): 87%
- pest or weed control at 50 ppm ([4]; Phakopsora pachyrhizi, 50 ppm, read-out: Test D disease control rating (Asian soybean rust)): 100%
- pest or weed control at 10 ppm ([5]; Botrytis cinerea, 10 ppm, read-out: Test E disease control rating (tomato Botrytis)): 99%
- pest or weed control at 50 ppm ([5]; Botrytis cinerea, 50 ppm, read-out: Test E disease control rating (tomato Botrytis)): 100%
- pest or weed control at 10 ppm ([6]; Alternaria solani, 10 ppm, read-out: Test F disease control rating (tomato early blight)): 99%
- pest or weed control at 50 ppm ([6]; Alternaria solani, 50 ppm, read-out: Test F disease control rating (tomato early blight)): 99%

Structure (SMILES): COc1cc(F)c(-c2c(C)nn(C)c2Nc2ccccc2[N+](=O)[O-])c(F)c1 [Compound 147]
- Test A disease control rating (wheat leaf blotch) ([1]; 50 ppm): 96%
- Test B disease control rating (wheat leaf rust) ([2]; 50 ppm): 86%
- Test C disease control rating (wheat powdery mildew) ([3]; 50 ppm): 97%
- Test D disease control rating (Asian soybean rust) ([4]; 50 ppm): 0%
- Test E disease control rating (tomato Botrytis) ([5]; 50 ppm): 100%
- Test F disease control rating (tomato early blight) ([6]; 50 ppm): 99%

Structure (SMILES): CCc1nn(C)c(Nc2ccc(C)cc2[N+](=O)[O-])c1-c1ccc(F)cc1F [Compound 175]
- Test A disease control rating (wheat leaf blotch) ([1]; 50 ppm): 100%
- Test B disease control rating (wheat leaf rust) ([2]; 50 ppm): 86%
- Test C disease control rating (wheat powdery mildew) ([3]; 50 ppm): 79%
- Test D disease control rating (Asian soybean rust) ([4]; 50 ppm): 0%
- Test E disease control rating (tomato Botrytis) ([5]; 50 ppm): 88%
- Test F disease control rating (tomato early blight) ([6]; 50 ppm): 0%

Structure (SMILES): COc1cc(F)c(Nc2c(-c3ccc(Cl)cc3Cl)c(C)nn2C)c([N+](=O)[O-])c1 [Compound 138]
- Test A disease control rating (wheat leaf blotch) ([1]; 50 ppm): 100%
- Test B disease control rating (wheat leaf rust) ([2]; 50 ppm): 100%
- Test C disease control rating (wheat powdery mildew) ([3]; 50 ppm): 93%
- Test D disease control rating (Asian soybean rust) ([4]; 50 ppm): 67%
- Test E disease control rating (tomato Botrytis) ([5]; 50 ppm): 99%
- Test F disease control rating (tomato early blight) ([6]; 50 ppm): 100%
